Source: ChEMBL document CHEMBL1201862, “PubChem BioAssay data set” (2004)
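Tested at 5 concentrations; 48 h exposure; 96-well plates; endpoints linearly interpolated, else capped at highest concentration. GI50 marks 50% less growth.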 Calls of active or inactive are those of the source. Cut-off read from the data, not from the text of the source: active = GI50 up to about 1.1 µM and inactive = higher.

Columns and labels:
Test in all cases: growth of human tumour cells (NCI), 48 h
[1] = tested on: SK-OV-3
[2] = tested on: UACC-62
[3] = tested on: UO-31
[4] = tested on: HCT-116
[5] = tested on: Malme-3M
[6] = tested on: T47D
[7] = tested on: SF-539
[8] = tested on: BT-549
[9] = tested on: SF-295
[10] = tested on: KM12
[11] = tested on: PC-3
[12] = tested on: DU-145
[13] = tested on: OVCAR-5
[14] = tested on: CCRF-CEM
[15] = tested on: HCC 2998
[16] = tested on: OVCAR-4
[17] = tested on: M14
[18] = tested on: NCI-H522
[19] = tested on: HOP-62
[20] = tested on: SN12C

C(#CC1(Nc2ccccc2)CCN(Cc2ccccc2)CC1)C1(Nc2ccccc2)CCN(Cc2ccccc2)CC1
GI50 [1]: 5.01 µM (inactive) | GI50 [2]: 13.2 µM (inactive) | GI50 [3]: 15.5 µM (inactive) | GI50 [4]: 19.4 µM (inactive) | GI50 [5]: 3.17 µM (inactive) | GI50 [6]: 9.31 µM (inactive) | GI50 [7]: 5.5 µM (inactive) | GI50 [8]: 34.6 µM (inactive) | GI50 [9]: 22.3 µM (inactive) | GI50 [10]: 35.3 µM (inactive) | GI50 [11]: 15.1 µM (inactive) | GI50 [12]: 46.9 µM (inactive) | GI50 [13]: 53.3 µM (inactive) | GI50 [14]: 6.27 µM (inactive) | GI50 [15]: 0.818 µM (active) | GI50 [16]: 19.3 µM (inactive) | GI50 [17]: 11.2 µM (inactive) | GI50 [18]: 24.8 µM (inactive) | GI50 [19]: 16.7 µM (inactive) | GI50 [20]: 24.2 µM (inactive)

OCCCNCC(O)c1ccc(OCc2ccccc2)c(OCc2ccccc2)c1 (stereo not given)
GI50 [1]: 9.51 µM (inactive) | GI50 [2]: 20 µM (inactive) | GI50 [3]: 15 µM (inactive) | GI50 [4]: 8.47 µM (inactive) | GI50 [5]: 15.8 µM (inactive) | GI50 [6]: 15.6 µM (inactive) | GI50 [7]: 10.9 µM (inactive) | GI50 [8]: 15.8 µM (inactive) | GI50 [9]: 10.4 µM (inactive) | GI50 [10]: 12.5 µM (inactive) | GI50 [11]: 10.9 µM (inactive) | GI50 [12]: 16.9 µM (inactive) | GI50 [13]: 15.7 µM (inactive) | GI50 [14]: 8.15 µM (inactive) | GI50 [15]: 5.3 µM (inactive) | GI50 [16]: 7.41 µM (inactive) | GI50 [17]: 17.1 µM (inactive) | GI50 [18]: 14.1 µM (inactive) | GI50 [19]: 14.3 µM (inactive) | GI50 [20]: 15.3 µM (inactive)

COC(=O)/C=C1/OC(c2ccc(OC)cc2)=C(Cl)C1=O
GI50 [1]: 16.7 µM (inactive) | GI50 [2]: 17.4 µM (inactive) | GI50 [3]: 21 µM (inactive) | GI50 [4]: 13.5 µM (inactive) | GI50 [5]: 16.2 µM (inactive) | GI50 [6]: 15.3 µM (inactive) | GI50 [7]: 19.1 µM (inactive) | GI50 [8]: 13.3 µM (inactive) | GI50 [9]: 19.9 µM (inactive) | GI50 [10]: 18.1 µM (inactive) | GI50 [11]: 15.2 µM (inactive) | GI50 [12]: 18.2 µM (inactive) | GI50 [13]: 17.1 µM (inactive) | GI50 [14]: 4.78 µM (inactive) | GI50 [15]: 21.3 µM (inactive) | GI50 [16]: 16.3 µM (inactive) | GI50 [17]: 16.9 µM (inactive) | GI50 [18]: 14.6 µM (inactive) | GI50 [19]: 20.6 µM (inactive) | GI50 [20]: 18.9 µM (inactive)

CC(C)=CCC/C(C)=C/CC/C(C)=C/CCN(C)CCO
GI50 [1]: 15.1 µM (inactive) | GI50 [2]: 13.5 µM (inactive) | GI50 [3]: 12.1 µM (inactive) | GI50 [4]: 4.12 µM (inactive) | GI50 [5]: 3.54 µM (inactive) | GI50 [6]: 2.78 µM (inactive) | GI50 [7]: 4.25 µM (inactive) | GI50 [8]: 10.8 µM (inactive) | GI50 [9]: 3.61 µM (inactive) | GI50 [10]: 2.75 µM (inactive) | GI50 [11]: 6.47 µM (inactive) | GI50 [12]: 12.7 µM (inactive) | GI50 [13]: 6.46 µM (inactive) | GI50 [14]: 2.39 µM (inactive) | GI50 [15]: 2.03 µM (inactive) | GI50 [16]: 13.9 µM (inactive) | GI50 [17]: 1.95 µM (inactive) | GI50 [18]: 6.61 µM (inactive) | GI50 [19]: 6.78 µM (inactive) | GI50 [20]: 12.3 µM (inactive)

CC1(C)C2CC3C(C)(C2)C31c1cc(Cl)ccc1N (stereo not given)
GI50 [1]: 15.5 µM (inactive) | GI50 [2]: 15.2 µM (inactive) | GI50 [3]: 13.9 µM (inactive) | GI50 [4]: 2.23 µM (inactive) | GI50 [5]: 7.53 µM (inactive) | GI50 [6]: 12 µM (inactive) | GI50 [7]: 15.5 µM (inactive) | GI50 [8]: 15.5 µM (inactive) | GI50 [9]: 15.2 µM (inactive) | GI50 [10]: 14.4 µM (inactive) | GI50 [11]: 13.8 µM (inactive) | GI50 [12]: 14 µM (inactive) | GI50 [13]: 16 µM (inactive) | GI50 [14]: 16 µM (inactive) | GI50 [15]: 15 µM (inactive) | GI50 [16]: 15.2 µM (inactive) | GI50 [17]: 12.4 µM (inactive) | GI50 [18]: 6.71 µM (inactive) | GI50 [19]: 15.3 µM (inactive) | GI50 [20]: 14.4 µM (inactive)
